The text below walks through data of patent publication US10597366B2, “Aryl ethers and uses thereof” (Peloton Therapeutics, Inc., priority 2013, dated 2020).

As a reminder, the EC50 is the midpoint of the concentration-response curve.

One assay has as its system human VEGFA. Kind of assay: Plasma human VEGFA level of 786-O xenograft bearing mice. It is filed as in vivo. To be noted: 10, 30 and 100 mg/kg, three times at 12 hour intervals, prior to vs 12 h post treatment, FIG. 5.
Assay [1] deals with 786-O-Hif-Luc cells (luciferase gene driven by multiple HIF responsive elements). Kind of assay: Luciferase Assay. The class given is cell-based. To be noted: 24 h, 786-O-Hif-Luc cells, about 24 hours; read-out: Mean Luciferease EC50. As to the method:
A pool of infected cells were then selected against 2 μg/mL of puromycin (P8833, Sigma) for 10 days followed by limited dilution to select single clones.
Each concentration was tested in triplicate. After about 24 hours, luciferase activity was determined using ONE-Glo Luciferase Assay Reagent (E6110, Promega) following the manufacturer's recommended procedure. EC50 were calculated by using Dotmatics software.

Assay [2] relates to EPO and PGK1 mRNA in mouse kidney. Kind of assay: In vivo PK/PD study: mouse kidney mRNA levels by qRT-PCR. Details: species or system SCID/Biege mice. The following applies: oral gavage three times at 12 hour intervals; 10, 30 or 100 mg/kg. As to the method:
About 5×10^6 renal cell carcinoma 786-O tumor cells (ATCC® CRL-1932, VHL and HIF-1α null cell line) in PBS and Matrigel (1:1 in volume) were injected subcutaneously at the right flanks of SCID/Biege mice at 6-7 weeks of age for xenograft development. When the xenografts reached about 450 mm^3 in size, the tumor bearing mice were randomly divided into 4 groups (n=4). Plasma was collected prior to treatment by retro-orbital bleeding. […] All animals were sacrificed at 12 hours post last dose. Tumor, kidney, and plasma were collected from each animal. Total RNA was extracted from the tumors and kidneys. The mRNA levels of HIF-1α, HIF-2α and their respective target genes were determined by qRT-PCR (FIG. 1).
In general terms: Real-time PCR tracks product formation cycle by cycle.

The test system of assay [3] is renal cell carcinoma 786-O xenograft. Briefly: In vivo efficacy study, 786-O xenograft. Details: species or system SCID/Biege mice. The following applies: all treatment groups; t-Test; Compound 15 20 days, Compound 163 28 days.

Regarding `N#Cc1cc(F)cc(Oc2ccc(S(=O)(=O)C(F)F)c3c2CC(F)(F)[C@H]3O)c1` [Compound 15, 3-[(1S)-7-(difluoromethylsulfonyl)-2,2-difluoro-1-hydroxy-indan-4-yl]oxy-5-fluoro-benzonitrile], in the assay on human VEGFA, the “plasma level of human VEGFA” value was “reduced”. Besides, the EC50 in assay [1] is 7 nM. Moreover, in assay [2], the “Mouse kidney EPO mRNA level (HIF-2α specifically regulated gene)” value was “reduced” and the “Mouse kidney PGK1 mRNA level (HIF-1α targeted gene)” value is listed as “remained unchanged”. Also, in assay [3], the “Tumor size versus vehicle” value was “statistically significant reduction”.
